Literature values in patent US20070166321A1, “Compositions and Methods for Reducing Cholesterol and Inflammation” (priority 2006, published 2007).
“Also recorded” adds a separate entry of the source.

Tests used:
[1] = in vivo
[2] = tested on: 12-O-tetradecanoylphorbol-13 acetate (TPA) induced inflammation; conditions: for 50%-inflammation reduction index ID50: TPA-induced inflammation
[3] = not given; remark: listed apart in the source

| SMILES | increase of cardiovascular disease [1] | 50%-inflammation reduction index ID50 [2] | inhibition of TPA induced inflammation, potency comparison ([2]; compared with reference antiinflammatory drugs) | effect on glucose levels of non-diabetics | solubility in water [3] |
| --- | --- | --- | --- | --- | --- |
| CS(=O)(=O)c1ccc(C2=C(c3ccccc3)C(=O)OC2)cc1 [Vioxx] | ~4 fold | – | – | – | – |
| C[C@H]1[C@H](C)CC[C@]2(C(=O)O)CC[C@]3(C)C(=CC[C@@H]4[C@@]5(C)C[C@@H](O)[C@H](O)C(C)(C)[C@@H]5CC[C@]43C)[C@H]12 [corosolic acid] | – | 0.03 mg | potency similar to the antiinflammatory drug indomethasin; also recorded: potency similar to the antiinflammatory drugs indomethasin and hydrocortisone | does not significantly reduce glucose levels | low solubility in water |
| C[C@]12CCC(=O)C=C1CC[C@@H]1[C@@H]2[C@@H](O)C[C@@]2(C)[C@H]1CC[C@]2(O)C(=O)CO [hydrocortisone] | – | 0.03 mg | – | – | – |
| COc1ccc2c(c1)c(CC(=O)O)c(C)n2C(=O)c1ccc(Cl)cc1 [indomethacin] | – | 0.3 mg | – | – | – |
